“And” between values parts separate entries of the source, which are not always exact repeats. Equal values may be shown once. Where a name gives a salt, the structure may show the parent alone. Read-outs that look alike come from different tables or passages of the source. Each block holds one compound with its values, some of them ahead of it.
Tests used:
[1] = Solubility tests of nitroxoline and nitroxoline salts in aqueous buffers and water; format: physicochemical; conditions: for solubility at 30 min: thermodynamic from solid; for solubility at a physiologically relevant pH: pH of 4.5 to 8, in contrast to nitroxoline and acid addition salts
Experimental: 1) Aqueous buffer solutions with varying pH were prepared as follows: • i. Water: distilled water; • ii. pH=1.2 buffer: 7.65 mL 36.5% HCl solution was diluted to 1000 mL with water; • iii. pH=4.5 buffer: 18 g sodium acetate and 9.8 mL acetic acid were diluted to 1000 mL with water; • iv. pH=5.0 buffer: sodium hydroxide was added to 0.2 mol/L monosodium phosphate (NaH2PO4) solution until the pH was adjusted to 5.0; • v. pH=6.0 buffer: 18 g sodium acetate were added into 20 mL acetic acid solution (1 M), and the mixture was diluted to 500 mL with water; • vi. pH=6.8 buffer: 250 mL of 0.2 M monopotassium phosphate (KH2PO4) solution were added to 118 mL of 0.2 M sodium hydroxide solution, and the mixture was diluted to 1000 mL with water; • vii. pH=7.4 buffer: 1.36 g monopotassium phosphate (KH2PO4) were added to 79 mL of 0.1 M sodium hydroxide solution, and the mixture was diluted to 200 mL with water; and • viii pH=8.0 buffer: 5.59 g potassium biphosphate (K2HPO4) and 0.41 g monopotassium. phosphate (KH2PO4) were added to 1000 mL water and mixed.
2) Solubility tests were performed generally as follows:
Under a temperature of 25±2° C., 10 mg of each salt sample was weighed and added to a 100 mL volumetric bottle. 0.25 mL buffer was added to the bottle, which was shaken vigorously for 30 seconds every 5 min.
If the sample was not completely dissolved, 0.7 mL of the same buffer was added, and dissolution was observed by the same shaking procedure.
If the sample was not completely dissolved, 8.5 mL of the same buffer was added, and dissolution was observed by the same shaking procedure.
If the sample was not completely dissolved, 85 mL of the same buffer was added, and dissolution was observed by the same shaking procedure.

[2] = In vivo urinary excretion of nitroxoline and nitroxoline salts in beagle dogs
Experimental: Urine samples were collected in the following periods of time: 0-2, 2-4, 4-6, 6-8, 8-24 h. Urine samples were analyzed by LC/MS/MS method utilizing an Agilent 1100 HPLC system with a CTC auto-sampler, an AB API4000 mass spectrometer, and a column of ACQUITY UPLC BEH C18 (2.1*50 mm) Dexamethasone was used as an internal standard. […] The range of linearity was determined to be 25˜5000 ng/mL.
(§1) The same study was repeated with APL-1092, nitroxoline lysine salt.

[3] = In vivo urinary excretion of nitroxoline and nitroxoline salts in mice; parameters: species or system CD-1 ICR mice
Experimental: Urine samples were collected in the following periods of time: 0-2, 2-6, 6-24 h. Due to the small volume of the urine from mice, the collecting system in the cage was washed with water at each collecting time. Urine samples and their wash samples were analyzed according to the same methods used in the beagle dog study (Example 24).
as §1

[4] = distilled water, 25 °C, water, distilled water, 25±2° C., read-out: Solubility water
[5] = pH 1.2 buffer (dilute HCl), 25 °C, pH 1.2, simulated gastric fluid, pH=1.2 buffer, 25±2° C., read-out: Solubility pH 1.2
[6] = pH 4.5 acetate buffer, 25 °C, pH 4.5, aqueous buffer, pH=4.5 buffer, 25±2° C., read-out: Solubility pH 4.5
[7] = pH 5.0 phosphate buffer, 25 °C, pH 5, aqueous buffer, pH=5.0 buffer, 25±2° C., read-out: Solubility pH 5
[8] = pH 6.0 acetate buffer, 25 °C, pH 6, aqueous buffer, pH=6.0 buffer, 25±2° C., read-out: Solubility pH 6
[9] = pH 6.8 phosphate buffer, 25 °C, pH 6.8, aqueous buffer, pH=6.8 buffer, 25±2° C., read-out: Solubility pH 6.8
[10] = pH 7.4 phosphate buffer, 25 °C, pH 7.4, aqueous buffer, buffer headed 'pH .4', 25±2° C., read-out: Solubility pH .4
[11] = pH 8.0 phosphate buffer, 25 °C, pH 8, aqueous buffer, pH=8.0 buffer, 25±2° C., read-out: Solubility pH 8.0

solubility at 30 min ([1]; aqueous buffers pH 1.2 to 8, 25 °C, pH 1.2, aqueous buffer, all pHs tested, from pH 1.2 to 8, read-out: solubility at all pHs tested): < 100 µg/mL
solubility at 30 min [1, 4]: < 100 µg/mL
solubility at 30 min [1, 5]: < 100 µg/mL
solubility at 30 min [1, 6]: < 100 µg/mL
solubility at 30 min [1, 7]: < 100 µg/mL
solubility at 30 min [1, 8]: < 100 µg/mL
solubility at 30 min [1, 9]: < 100 µg/mL
solubility at 30 min [1, 10]: < 100 µg/mL
solubility at 30 min [1, 11]: < 100 µg/mL
SMILES: Cl.O=[N+]([O-])c1ccc(O)c2ncccc12 [APL-1071, Nitroxoline HCl Salt]

solubility at 30 min [1, 4]: 1000 to 10000 µg/mL
solubility at 30 min [1, 5]: < 100 µg/mL
solubility at 30 min [1, 6]: < 100 µg/mL
solubility at 30 min [1, 7]: < 100 µg/mL
solubility at 30 min [1, 8]: < 100 µg/mL
solubility at 30 min [1, 9]: < 100 µg/mL
solubility at 30 min [1, 10]: < 100 µg/mL
solubility at 30 min [1, 11]: < 100 µg/mL
solubility at a physiologically relevant pH [1]: significantly improved solubility
SMILES: O=[N+]([O-])c1ccc([O-])c2ncccc12.[Na+] [APL-1072, Nitroxoline Sodium Salt]

solubility at 30 min [1, 4]: < 100 µg/mL
solubility at 30 min [1, 5]: 1000 to 10000 µg/mL
solubility at 30 min [1, 6]: < 100 µg/mL
solubility at 30 min [1, 7]: < 100 µg/mL
solubility at 30 min [1, 8]: < 100 µg/mL
solubility at 30 min [1, 9]: < 100 µg/mL
solubility at 30 min [1, 10]: < 100 µg/mL
solubility at 30 min [1, 11]: < 100 µg/mL
SMILES: Br.O=[N+]([O-])c1ccc(O)c2ncccc12 [APL-1074, Nitroxoline HBr Salt]

solubility at 30 min [1, 6]: < 100 µg/mL
solubility at 30 min [1, 7]: < 100 µg/mL
solubility at 30 min [1, 8]: < 100 µg/mL
solubility at 30 min [1, 9]: < 100 µg/mL
SMILES: O=[N+]([O-])c1ccc(O)c2ncccc12 [APL-1075, Nitroxoline HNO3 Salt]

solubility at 30 min [1, 4]: 1000 to 10000 µg/mL
solubility at 30 min [1, 5]: < 100 µg/mL
solubility at 30 min [1, 6]: < 100 µg/mL
solubility at 30 min [1, 7]: < 100 µg/mL
solubility at 30 min [1, 8]: < 100 µg/mL
solubility at 30 min [1, 9]: < 100 µg/mL
solubility at 30 min [1, 10]: < 100 µg/mL
solubility at 30 min [1, 11]: 1000 to 10000 µg/mL
solubility at a physiologically relevant pH [1]: significantly improved solubility
SMILES: O=[N+]([O-])c1ccc([O-])c2ncccc12.[K+] [APL-1077, Nitroxoline Potassium Salt]

24-Hr Accumulated drug in the urine ([2]; In Dogs, 75 mg APL-1202 or equivalent amount): 617 µg
increase in drug excretion in the urine as compared to nitroxoline ([2]; beagle dogs, dosed at the equivalent amount of nitroxoline in moles): more than five times
f (%): percentage of total mass of excreted drug versus the dose amount ([2]; individual dogs, oral tablet, 75 mg nitroxoline equivalent): 1.1% and 0.419% and 0.949%
Total mass of nitroxoline in urine ([2]; individual dogs, oral tablet, 75 mg nitroxoline equivalent, 0-24 hr): 825000 ng and 313943 ng and 711720 ng
Mass of nitroxoline in urine, 0-2 hr ([2]; individual dogs, oral tablet, 75 mg nitroxoline equivalent, collection 0-2 hr): 0 ng and 15153 ng and 163020 ng
Mass of nitroxoline in urine, 2-4 hr ([2]; individual dogs, oral tablet, 75 mg nitroxoline equivalent, collection 2-4 hr): 0 ng and 130150 ng and 219300 ng
Mass of nitroxoline in urine, 4-6 hr ([2]; individual dogs, oral tablet, 75 mg nitroxoline equivalent, collection 4-6 hr): 0 ng (2×) and 96900 ng
Mass of nitroxoline in urine, 6-8 hr ([2]; individual dogs, oral tablet, 75 mg nitroxoline equivalent, collection 6-8 hr): 0 ng (2×) and 22165 ng
Mass of nitroxoline in urine, 8-24 hr ([2]; individual dogs, oral tablet, 75 mg nitroxoline equivalent, collection 8-24 hr): 825000 ng and 49575 ng and 329400 ng
f (%): percentage of total mass of excreted drug versus the dose amount, Mean ([2]; mean of dogs, oral tablet, 75 mg nitroxoline equivalent): 0.823%
Total mass of nitroxoline in urine, Mean ([2]; mean of dogs, oral tablet, 75 mg nitroxoline equivalent, 0-24 hr): 616888 ng
Mass of nitroxoline in urine, 0-2 hr, Mean ([2]; mean of dogs, oral tablet, 75 mg nitroxoline equivalent, collection 0-2 hr): 89086 ng
Mass of nitroxoline in urine, 2-4 hr, Mean ([2]; mean of dogs, oral tablet, 75 mg nitroxoline equivalent, collection 2-4 hr): 174725 ng
Mass of nitroxoline in urine, 4-6 hr, Mean ([2]; mean of dogs, oral tablet, 75 mg nitroxoline equivalent, collection 4-6 hr): 96900 ng
Mass of nitroxoline in urine, 6-8 hr, Mean ([2]; mean of dogs, oral tablet, 75 mg nitroxoline equivalent, collection 6-8 hr): 22165 ng
Mass of nitroxoline in urine, 8-24 hr, Mean ([2]; mean of dogs, oral tablet, 75 mg nitroxoline equivalent, collection 8-24 hr): 401325 ng
24-Hr Accumulated drug in the urine ([3]; In Mice, 41.8 mg/Kg APL-1202 or equivalent dose, 41.8 mg/kg): 139 µg
Total mass of nitroxoline in urine and wash, Mean ([3]; mean of mice, oral, equivalent of 41.8 mg/Kg nitroxoline, 0-24 hr, 41.8 mg/kg): 122573 ng
f (%): percentage of total mass of excreted drug versus the dose amount, Mean ([3]; mean of mice, oral, equivalent of 41.8 mg/Kg nitroxoline, 41.8 mg/kg): 22.3%
Mass of nitroxoline, 0~2 wash, Mean ([3]; mean of mice, oral, equivalent of 41.8 mg/Kg nitroxoline, cage wash 0~2 hr, 41.8 mg/kg): 40921 ng
Mass of nitroxoline, 2~6 wash, Mean ([3]; mean of mice, oral, equivalent of 41.8 mg/Kg nitroxoline, cage wash 2~6 hr, 41.8 mg/kg): 4888 ng
Mass of nitroxoline, 6~24 wash, Mean ([3]; mean of mice, oral, equivalent of 41.8 mg/Kg nitroxoline, cage wash 6~24 hr, 41.8 mg/kg): 234 ng
Mass of nitroxoline in urine, 0-2 hr, Mean ([3]; mean of mice, oral, equivalent of 41.8 mg/Kg nitroxoline, urine 0-2 hr, 41.8 mg/kg): 71062 ng
Mass of nitroxoline in urine, 2-6 hr, Mean ([3]; mean of mice, oral, equivalent of 41.8 mg/Kg nitroxoline, urine 2-6 hr, 41.8 mg/kg): 5410 ng
Mass of nitroxoline in urine, 6-24 hr, Mean ([3]; mean of mice, oral, equivalent of 41.8 mg/Kg nitroxoline, urine 6-24 hr, 41.8 mg/kg): 58.8 ng
increase of drug excretion in the urine as compared to nitroxoline ([3]; mice, dosed at the equivalent amount of nitroxoline in moles): approximately two times greater
SMILES: O=[N+]([O-])c1ccc(O)c2ncccc12 [APL-1092, Nitroxoline Lysine Salt]
Total mass of nitroxoline in urine and wash ([3]; individual mice, oral, equivalent of 41.8 mg/Kg nitroxoline, 0-24 hr, 41.8 mg/kg): 174297 ng and 118681 ng and 56516 ng and 155110 ng and 87439 ng and 143396 ng
f (%): percentage of total mass of excreted drug versus the dose amount ([3]; individual mice, oral, equivalent of 41.8 mg/Kg nitroxoline, 41.8 mg/kg): 34.7% and 22.3% and 11.1% and 28.4% and 17.7% and 19.8%
Mass of nitroxoline, 0~2 wash ([3]; individual mice, oral, equivalent of 41.8 mg/Kg nitroxoline, cage wash 0~2 hr, 41.8 mg/kg): 113000 ng and 25240 ng and 15015 ng and 25300 ng and 47650 ng and 19320 ng
Mass of nitroxoline, 2~6 wash ([3]; individual mice, oral, equivalent of 41.8 mg/Kg nitroxoline, cage wash 2~6 hr, 41.8 mg/kg): 6055 ng and 3618 ng and 8190 ng and 4635 ng and 4868 ng and 1960 ng
Mass of nitroxoline, 6~24 wash ([3]; individual mice, oral, equivalent of 41.8 mg/Kg nitroxoline, cage wash 6~24 hr, 41.8 mg/kg): 296 ng and 158 ng and 246 ng and 286 ng and 227 ng and 190 ng
Mass of nitroxoline in urine, 0-2 hr ([3]; individual mice, oral, equivalent of 41.8 mg/Kg nitroxoline, urine 0-2 hr, 41.8 mg/kg): 51600 ng and 84300 ng and 31970 ng and 107380 ng and 31122 ng and 120000 ng
Mass of nitroxoline in urine, 2-6 hr ([3]; individual mice, oral, equivalent of 41.8 mg/Kg nitroxoline, urine 2-6 hr, 41.8 mg/kg): 3308.5 ng and 5263.2 ng and 1084 ng and 17458 ng and 3500 ng and 1846 ng
Mass of nitroxoline in urine, 6-24 hr ([3]; individual mice, oral, equivalent of 41.8 mg/Kg nitroxoline, urine 6-24 hr, 41.8 mg/kg): 37.5 ng and 101.64 ng and 10.4 ng and 51 ng and 73 ng and 79.6 ng
